Here are results for 1 molecule from PMC11123841, “Discovery and Synthesis of Hydroxy-L-Proline Blockers of the Neutral Amino Acid Transporters SLC1A4 (ASCT1) and SLC1A5 (ASCT2)” (Molecules, 2024).

Test [1] concerns the target T1, SLC38A1 (ATA1) (Homo sapiens, UniProt Q9H2H9).
T1 construct: expressed in transfected cells; host or cells: Xenopus laevis oocytes (cRNA injection)
T1 sequence (Q9H2H9 1-487): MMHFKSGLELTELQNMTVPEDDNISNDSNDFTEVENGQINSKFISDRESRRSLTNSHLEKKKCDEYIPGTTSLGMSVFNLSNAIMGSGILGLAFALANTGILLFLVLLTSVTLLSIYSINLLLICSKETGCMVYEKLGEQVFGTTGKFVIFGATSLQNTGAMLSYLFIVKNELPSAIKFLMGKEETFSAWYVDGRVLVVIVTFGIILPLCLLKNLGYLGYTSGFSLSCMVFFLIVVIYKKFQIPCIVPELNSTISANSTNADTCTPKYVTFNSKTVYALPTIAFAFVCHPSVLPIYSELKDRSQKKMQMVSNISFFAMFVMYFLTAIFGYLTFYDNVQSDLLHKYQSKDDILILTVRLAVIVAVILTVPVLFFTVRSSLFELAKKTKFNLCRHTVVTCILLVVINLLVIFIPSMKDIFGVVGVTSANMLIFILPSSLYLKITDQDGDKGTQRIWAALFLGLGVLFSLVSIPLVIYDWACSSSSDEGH
The test is described as follows: TEVC electrogenic coupled currents in oocytes. Particulars: 100 µM L-alanine, 3 µM BPOHP. In kind it is cell-based. On the procedure:
(§1) BPOHP activity was evaluated against the glutamate transporters paralogs within the SLC1A gene family (SLC1A 1–3) as well as at neutral amino acid transporters that share common ligand substrates with the SLC1 family including SLC38A1,2, and 4 (ATA1, ATA2, ATA3) and heteromeric transporters SLC7A10+SLC3A2 (asc-1/4f2). […] Finally, radiolabeled [^3H]D-serine uptake was used to assess the electroneutral SLC7A10+SLC3A2 transporter, in which 10 µM BPOHP had no effect (Figure S3).
(§2) Uptake was halted by washing 3 times with 4 °C ND96 buffer. Oocytes were then lysed in 0.1% Triton X-100, and radioactivity was counted via liquid scintillation. Dose response curves were generated by fitting fractional inhibition (I) to the expression I = Imax × [inhibitor]/([inhibitor] + IC50).
(§3) Two-electrode voltage clamp (TEVC) transporter currents were recorded with a GeneClamp 500 amplifier and Digidata 1320A analog–digital interface (Molecular Devices, San Jose, CA, USA). […] Data were acquired with Axograph (v1.7.6) and LabChart (v7) and analyzed with Kaleidagraph software (v4.1) (Synergy, Reading, PA, USA). Uncoupled anion currents associated with the transport of substrate and block of SLC1A4 or SLC1A5 mediated leak conductance were recorded in the presence of Ringer with 50% substitution of NaCl by NaSCN to amplify the non-transported anion conductance. […]

The target in test [2] is T2, SLC38A4 (ATA3) (Homo sapiens, UniProt Q969I6).
T2 construct: expressed in transfected cells; host or cells: Xenopus laevis oocytes (cRNA injection)
T2 sequence (Q969I6 1-547): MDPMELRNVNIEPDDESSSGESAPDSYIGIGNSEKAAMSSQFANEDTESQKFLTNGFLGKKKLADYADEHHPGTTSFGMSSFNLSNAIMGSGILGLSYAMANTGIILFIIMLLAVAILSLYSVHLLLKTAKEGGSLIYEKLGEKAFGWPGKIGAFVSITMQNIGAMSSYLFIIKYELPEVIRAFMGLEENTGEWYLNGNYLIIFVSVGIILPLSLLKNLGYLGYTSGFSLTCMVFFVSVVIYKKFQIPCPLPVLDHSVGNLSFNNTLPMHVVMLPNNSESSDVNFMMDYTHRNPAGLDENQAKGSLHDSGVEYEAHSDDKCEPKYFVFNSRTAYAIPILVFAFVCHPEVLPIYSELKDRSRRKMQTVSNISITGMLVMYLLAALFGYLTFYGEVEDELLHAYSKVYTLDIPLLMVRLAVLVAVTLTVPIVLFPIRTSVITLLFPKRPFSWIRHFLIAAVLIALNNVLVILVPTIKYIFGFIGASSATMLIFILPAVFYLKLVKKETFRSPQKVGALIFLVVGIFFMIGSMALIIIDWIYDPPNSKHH
Description: TEVC electrogenic coupled currents in oocytes. In kind it is cell-based. Particulars: 100 µM L-alanine, 3 µM BPOHP. The method, then: as §1, §2, §3

Test [3] concerns glutamate transporters (SLC1A 1–3). The test is described as follows: Inhibition of the glutamate transporters, general statement. In kind it is cell-based, human. The method, then:
as §1
High resolution structural models for SLC1A4 and SLC1A5 have been developed. These models reinforce our SLC1A5 homology model derived from the archaeal glutamate transporter. […] While preparing this manuscript, inhibitors of SLC1A5 of a similar design to our alkoxy-hydroxyprolines were reported with ligand-bound high-resolution EM models. These reported EM models help validate our docking solutions with respect to mode of binding within our homology model. We emphasize that our discoveries and modeling of these hydroxyproline/AHPC inhibitors targeting SLC1A4 and SLC1A5, as documented in the public domain [66, 67], predates these reports and is yet to be properly referenced/cited. […] This nonselective SLC1 inhibition, observed with BPOHP, may be attributed to entropic contributions resulting from the biphenyl moiety occupying an adjacent hydrophobic pocket.

Entries after “also recorded” stand apart in the source; their conditions may differ.

In the case of `O=C(O)[C@H]1NC[C@@H](OCc2ccc(-c3ccccc3)cc2)[C@@H]1O` [14e], the “block of L-alanine current” value in test [1] and in test [2] was “no effect; also recorded: no discernible block; also recorded: no inhibition was detected” each time. Moreover, in test [3], the “inhibition of the glutamate transporters” value was “low micromolar range”.
